From paper PMC5734772, “Characterization of CobB kinetics and inhibition by nicotinamide” (PLoS ONE, 2017)

T1: CobB (Escherichia coli, UniProt P75960)
T1 construct: recombinant CobB, MBP tag cleaved
T1 sequence (P75960 1-279): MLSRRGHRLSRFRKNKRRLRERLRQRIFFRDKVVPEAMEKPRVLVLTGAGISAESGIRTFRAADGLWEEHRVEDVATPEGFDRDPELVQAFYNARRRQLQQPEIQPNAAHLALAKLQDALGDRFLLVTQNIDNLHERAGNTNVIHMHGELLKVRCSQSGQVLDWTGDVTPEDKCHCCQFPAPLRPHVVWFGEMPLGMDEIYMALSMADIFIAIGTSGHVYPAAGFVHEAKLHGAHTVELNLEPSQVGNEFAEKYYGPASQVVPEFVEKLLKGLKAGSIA

B1: nicotinamidase (PncA) (Escherichia coli K-12) (protein)
chain: MPPRALLLVDLQNDFCAGGALAVPEGDSTVDVANRLIDWCQSRGEAVIASQDWHPANHGSFASQHGVEPYTPGQLDGLPQTFWPDHCVQNSEGAQLHPLLHQKAIAAVFHKGENPLVDSYSAFFDNGRRQKTSLDDWLRDHEIDELIVMGLATDYCVKFTVLDALQLGYKVNVITDGCRGVNIQPQDSAHAFMEMSAAGATLYTLADWEETQG
notes: recombinant His6-tagged nicotinamidase

What was measured:
[1] = biological target: T2, nicotinamidase (PncA) (Escherichia coli, UniProt P21369); assay: activity of purified PncA after […] min incubation with […] inhibitor at […]°C; activity undetectable; type: biochemical
T2 construct: recombinant His6-tagged nicotinamidase

[2] = biological target: T1, CobB; assay: deacetylation of acetylated Acs by purified CobB at varied NAM and NAD+; Dixon and double-reciprocal plots (Ki approximately […]); type: biochemical
[3] = substrate: NC(=O)c1cccnc1; assay: purified protein; type: biochemical, Escherichia coli

Molecule	activity of purified PncA after 10 min incubation with 1 mM inhibitor at 37°C; a [1]	other results
N#Cc1cccnc1 [3-pyridinecarbonitrile]	This result confirms PncA inhibition by 3-pyridinecarbonitrile and 3-pyridinecarboxaldehide in vitro.	
O=Cc1cccnc1 [3-pyridinecarboxaldehide]	This result confirms PncA inhibition by 3-pyridinecarbonitrile and 3-pyridinecarboxaldehide in vitro.	
NC(=O)c1cccnc1 [nicotinamide]		IC50 [2]: ~52 µM
B1		Km [3]: 175 ± 27 µM
